Measurements: patent US12275745B2, “Therapeutic compounds and methods of use” (Genentech, Inc., priority 2021, dated 2025)

Key:
TEAD3 = TEAD3 (Homo sapiens, UniProt Q99594); assay: TR-FRET (Lipid HTRF) TEAD lipid pocket probe displacement assay, TEAD3; type: binding; conditions: His-tagged TEAD3, biotinylated lipid pocket probe, 4 hours
Protocol: (§1) His-tagged TEAD proteins are pre-incubated with TEAD project compounds for 30 minutes or 4 hours at room temperature. Biotinylated lipid pocket probes are then added to the TEAD/Compound mixture and incubated for 60 minutes at room temperature. The lipid pocket probe competes with the test compound for the TEAD lipid pocket until equilibrium is reached. After 60 minutes, Europium labelled anti-His (Perkin Elmer #AD0110) and XL665 labelled streptavidin (CIS Bio 610SAXAC) are added to the TEAD/test compound/lipid pocket mixture and incubated for 30 minutes or 4 hours. TR-FRET values are then measured using an EnVision multi-label plate reader (Perkin Elmer Cat #2104-001 0A.) If the lipid pocket probe binds to TEAD as expected, a TR-FRET signal results from the proximity of anti-His Eu and XL665. If a TEAD lipid pocket binder such as binds and displaces the lipid pocket probe, the disruption of the TEAD:probe interaction results in a decrease in TR-FRET signal. The potency of compounds as TEAD lipid pocket binders is determined by IC50 value generated using a non-linear 4 parameter curve fit.

TEAD2 = TEAD2 (Homo sapiens, UniProt Q15562); assay: biochemical;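 note: TR-FRET competition assay with His-tagged TEAD protein and a biotinylated lipid pocket probe, where probe displacement by compound lowers the signal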
Protocol: as §1

TEAD4 = TEAD4 (Homo sapiens, UniProt Q15561); assay: TR-FRET (Lipid HTRF) TEAD lipid pocket probe displacement assay, TEAD4; type: binding; conditions: His-tagged TEAD4, biotinylated lipid pocket probe, 4 hours
Protocol: as §1

TEAD1 = TEAD1 (Homo sapiens, UniProt P28347); assay: TR-FRET (Lipid HTRF) TEAD lipid pocket probe displacement assay, TEAD1; type: binding; conditions: His-tagged TEAD1, biotinylated lipid pocket probe, 4 hours
TEAD1, sequence (P28347 whole entry, species assumed): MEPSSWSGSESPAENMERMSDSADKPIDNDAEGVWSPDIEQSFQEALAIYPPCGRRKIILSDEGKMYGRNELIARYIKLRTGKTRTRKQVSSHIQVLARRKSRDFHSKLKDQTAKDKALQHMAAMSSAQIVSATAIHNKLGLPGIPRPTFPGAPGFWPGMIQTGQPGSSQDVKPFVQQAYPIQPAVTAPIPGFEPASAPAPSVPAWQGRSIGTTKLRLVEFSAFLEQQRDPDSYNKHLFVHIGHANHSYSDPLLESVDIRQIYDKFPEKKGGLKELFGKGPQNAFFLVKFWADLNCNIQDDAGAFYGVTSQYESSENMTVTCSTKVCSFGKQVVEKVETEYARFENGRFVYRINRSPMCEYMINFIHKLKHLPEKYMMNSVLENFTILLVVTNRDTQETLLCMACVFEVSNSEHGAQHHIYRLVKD

TEAD3, sequence (Q99594 whole entry, species assumed): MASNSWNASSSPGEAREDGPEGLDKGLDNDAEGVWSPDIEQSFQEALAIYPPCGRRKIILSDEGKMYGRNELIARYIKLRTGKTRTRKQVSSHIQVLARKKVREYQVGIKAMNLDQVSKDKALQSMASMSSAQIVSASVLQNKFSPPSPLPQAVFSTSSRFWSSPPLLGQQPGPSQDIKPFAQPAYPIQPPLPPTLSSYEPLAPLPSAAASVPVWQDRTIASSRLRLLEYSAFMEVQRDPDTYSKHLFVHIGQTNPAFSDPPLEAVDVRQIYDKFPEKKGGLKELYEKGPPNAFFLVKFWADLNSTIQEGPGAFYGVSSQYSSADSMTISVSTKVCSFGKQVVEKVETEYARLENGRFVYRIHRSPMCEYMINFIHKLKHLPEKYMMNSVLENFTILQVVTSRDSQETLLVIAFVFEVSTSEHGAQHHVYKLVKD
TEAD4, sequence (Q15561 whole entry, species assumed): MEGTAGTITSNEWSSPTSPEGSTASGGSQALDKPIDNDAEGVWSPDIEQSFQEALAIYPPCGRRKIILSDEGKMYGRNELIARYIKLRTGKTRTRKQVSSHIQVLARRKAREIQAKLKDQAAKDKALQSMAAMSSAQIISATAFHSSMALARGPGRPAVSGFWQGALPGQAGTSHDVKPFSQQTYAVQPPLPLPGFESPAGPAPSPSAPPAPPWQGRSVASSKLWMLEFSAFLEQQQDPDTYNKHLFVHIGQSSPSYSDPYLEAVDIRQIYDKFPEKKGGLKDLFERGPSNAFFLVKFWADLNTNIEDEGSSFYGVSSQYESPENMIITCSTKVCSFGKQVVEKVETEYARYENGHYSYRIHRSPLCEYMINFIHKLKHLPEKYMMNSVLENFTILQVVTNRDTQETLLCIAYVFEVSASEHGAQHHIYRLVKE
TEAD2, sequence (Q15562 whole entry, species assumed): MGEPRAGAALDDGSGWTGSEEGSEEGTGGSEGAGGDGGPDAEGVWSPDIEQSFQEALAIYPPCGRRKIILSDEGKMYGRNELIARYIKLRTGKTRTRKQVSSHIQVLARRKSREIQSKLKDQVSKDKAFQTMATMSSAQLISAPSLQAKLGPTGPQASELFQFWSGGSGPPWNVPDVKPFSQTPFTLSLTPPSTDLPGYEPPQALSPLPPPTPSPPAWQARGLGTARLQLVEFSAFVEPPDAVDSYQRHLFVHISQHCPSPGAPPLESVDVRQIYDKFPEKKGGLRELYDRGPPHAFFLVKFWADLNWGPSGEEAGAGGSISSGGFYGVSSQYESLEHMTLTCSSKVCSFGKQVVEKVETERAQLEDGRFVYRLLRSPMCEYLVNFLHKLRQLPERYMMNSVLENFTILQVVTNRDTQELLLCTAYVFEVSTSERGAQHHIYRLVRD

SMILES	IC50 (TEAD3)	IC50 (TEAD2)	IC50 (TEAD4)	IC50 (TEAD1)
C=C(F)C(=O)N1CC(c2cc(-c3ccc(OC(F)(F)F)cc3)c3ncn(C)c3c2CO)C1 [Compound 59, 2-fluoro-1-[3-[4-(hydroxymethyl)-3-methyl-7-[4-(trifluoromethoxy)phenyl]benzimidazol-5-yl]azetidin-1-yl]prop-2-en-1-one]	380 nM	37 nM	81 nM	18 nM
C=C(F)C(=O)NCc1cc(-c2ccc(OC(F)(F)F)cc2)c2ncn(C)c2c1CO [Compound 63, 2-fluoro-N-[[4-(hydroxymethyl)-3-methyl-7-[4-(trifluoromethoxy)phenyl]benzimidazol-5-yl]methyl]prop-2-enamide]	310 nM	76 nM	80 nM	110 nM
CN(Cc1cc(-c2ccc(OC(F)(F)F)cc2)c2ncn(C)c2c1CO)C(=O)/C=C/CO [Compound 64, (E)-4-hydroxy-N-[[4-(hydroxymethyl)-3-methyl-7-[4-(trifluoromethoxy)phenyl]benzimidazol-5-yl]methyl]-N-methyl-but-2-enamide]	700 nM	510 nM	44 nM	270 nM
C=C(F)C(=O)NCc1cc(-c2ccc(OC(F)(F)F)cc2)c2c(c1C#N)CCO2 [Compound 67, N-[[4-cyano-7-[4-(trifluoromethoxy)phenyl]-2,3-dihydrobenzofuran-5-yl]methyl]-2-fluoro-prop-2-enamide]	420 nM	340 nM	140 nM	93 nM
C=CC(=O)NCc1nc(-c2ccc(OC(F)(F)F)cc2)c2ncn(C)c2n1 [Compound 69, N-[[9-methyl-6-[4-(trifluoromethoxy)phenyl]purin-2-yl]methyl]prop-2-enamide]	97 nM	100 nM	7.5 nM	40 nM
C=CC(=O)NCc1nc(-c2ccc(OC(F)(F)F)cc2)c2ncn(C)c2c1CO [Compound 73, N-((7-(hydroxymethyl)-1-methyl-4-(4-(trifluoromethoxy)phenyl)-1H-imidazo[4,5-c]pyridin-6-yl)methyl)acrylamide]	220 nM	40 nM	39 nM	58 nM

The next compounds have a lower IC50 (TEAD3) than those just listed; values first:

IC50 (TEAD3)	IC50 (TEAD2)	IC50 (TEAD4)	IC50 (TEAD1)	SMILES
26 nM	33 nM	6.8 nM	20 nM	C=CC(=O)N(C)Cc1cc(-c2ccc(OC(F)(F)F)cc2)c2nccn2c1 [Compound 38, N-methyl-N-[[8-[4-(trifluoromethoxy)phenyl]imidazo[1,2-a]pyridin-6-yl]methyl]prop-2-enamide]
50.5 nM	9 nM	24.5 nM	8 nM	C=CC(=O)NCc1cc(-c2ccc(OC(F)(F)F)cc2)c2ncn(C(F)F)c2c1CO [Compound 39, N-[[3-(difluoromethyl)-4-(hydroxymethyl)-7-[4-(trifluoromethoxy)phenyl]benzimidazol-5-yl]methyl]prop-2-enamide]
22 nM	9.8 nM	16 nM	10 nM	C=CC(=O)NCc1cc(-c2ccc(OC(F)(F)F)cc2)c2cccnc2c1C [Compound 43, N-[[8-methyl-5-[4-(trifluoromethoxy)phenyl]-7-quinolyl]methyl]prop-2-enamide]
18 nM	16 nM	54 nM	11 nM	C=CC(=O)NCc1cc(-c2ccc(OC(F)(F)F)cc2)c2cccnc2c1CO [Compound 44, N-[[8-(hydroxymethyl)-5-[4-(trifluoromethoxy)phenyl]-7-quinolyl]methyl]prop-2-enamide]
37 nM	11 nM	34 nM	12 nM	C=CC(=O)NCc1cc(-c2ccc(OC(F)(F)F)cc2)c2ncccc2c1CO [Compound 50, N-[[5-(hydroxymethyl)-8-[4-(trifluoromethoxy)phenyl]-6-quinolyl]methyl]prop-2-enamide]
